Laboratory results: patent US12195427B2, “MASP-2 inhibitors and methods of use” (priority 2018, dated 2025)

Target: MASP-2 CCP2-SP (Homo sapiens (Human), UniProt O00187)
Assay: MASP-2 co-crystallization, X-ray crystallography and structure analysis (H-bonds, van der Waals contacts);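 as to Ligand-pharmacophore element distance, pharmacophore element C2: distance from averaged pharmacophore element to bound ligand; missing value means element absent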;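 as to Ligand-pharmacophore element distance, pharmacophore element C3: distance from averaged pharmacophore element to bound ligand; missing value means element absent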;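 as to Ligand-pharmacophore element distance, pharmacophore element C4: distance from averaged pharmacophore element to bound ligand; missing value means element absent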;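 as to Ligand-pharmacophore element distance, pharmacophore element C5: distance from averaged pharmacophore element to bound ligand; missing value means element absent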
Set-up: van der Waals contact distance, MASP-2 HIS 483 atom CD2 / van der Waals contact distance, MASP-2 HIS 483 atom NE2 / van der Waals contact distance, SER 654 C to compound atom / van der Waals contact distance, SER 654 O to compound atom / van der Waals contact distance, TRP 655 C to compound atom / van der Waals contact distance, MASP-2 GLY 528 atom CA / van der Waals contact distance TRP 655 atom CZ3 / van der Waals contact distance TRP 655 atom N / van der Waals contact distance TRP 655 atom CE3 / van der Waals contact distance GLY 656 atom C / van der Waals contact distance GLY 656 atom CA / van der Waals contact distance GLY 656 atom O / van der Waals contact distance, MASP-2 TYR 607 atom CD1 / van der Waals contact distance, MASP-2 PRO 606 atom O / d(C3,CA1) / d(CA1,N1)2 / d(H4,O1) / d(H4,O2) / d(O1,O2) / d(CA1,O2) / d(CA6,O1) / d(CA6,O2) / d(CA1,C5) / d(O2,H3) / d(N2,C2) / d(CA5,N2) / d(N2,C4) / d(N2,C6) / d(N2,CA3) / d(N2,O3) / d(O4,H2): unit not given beside the values
Details: Table A4-1; element C2
Summary of the method: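 Inhibitor complexes were obtained by soaking crystals of E. coli-derived human MASP-2 CCP2-SP. Synchrotron diffraction at 1.0 wavelength, molecular replacement and partial refinement gave the models; one pose per ligand was chosen for contact analysis.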

Chain of MASP-2 CCP2-SP (O00187 445-686): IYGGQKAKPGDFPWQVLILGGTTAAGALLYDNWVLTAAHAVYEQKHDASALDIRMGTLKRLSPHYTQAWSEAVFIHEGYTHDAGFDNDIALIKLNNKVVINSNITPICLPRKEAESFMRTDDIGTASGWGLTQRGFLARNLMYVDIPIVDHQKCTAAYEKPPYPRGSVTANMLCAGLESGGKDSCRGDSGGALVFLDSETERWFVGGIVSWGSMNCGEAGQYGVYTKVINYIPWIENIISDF
Chain of MASP-2 CCP2-SP (O00187 364-432 partner): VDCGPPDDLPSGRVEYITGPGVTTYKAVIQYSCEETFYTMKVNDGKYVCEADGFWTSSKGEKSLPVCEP

SMILES	Ligand-pharmacophore element distance, pharmacophore element C2
Cc1nc(N)ccc1CNC(=O)[C@H](C)NC(=O)[C@H]1C[C@H](Cc2cccc(Cl)c2)CN1.Cl.Cl [1328_3]	0
Cc1nc(N)ccc1CNC(=O)[C@H](C)NC(=O)[C@H]1C[C@H](Cc2cccc(Cl)c2)CN1.Cl.Cl [1328_4]	0

Same assay, conditions: Table A4-1; element C3

SMILES	Ligand-pharmacophore element distance, pharmacophore element C3
Cc1nc(N)ccc1CNC(=O)[C@H](C)NC(=O)[C@H]1C[C@H](Cc2cccc(Cl)c2)CN1.Cl.Cl [1328_3]	0.21
Cc1nc(N)ccc1CNC(=O)[C@H](C)NC(=O)[C@H]1C[C@H](Cc2cccc(Cl)c2)CN1.Cl.Cl [1328_4]	0.18

Same assay, conditions: Table A4-1; element C4

SMILES	Ligand-pharmacophore element distance, pharmacophore element C4
Cc1nc(N)ccc1CNC(=O)[C@H](C)NC(=O)[C@H]1C[C@H](Cc2cccc(Cl)c2)CN1.Cl.Cl [1328_3]	1.76
Cc1nc(N)ccc1CNC(=O)[C@H](C)NC(=O)[C@H]1C[C@H](Cc2cccc(Cl)c2)CN1.Cl.Cl [1328_4]	1.86

Same assay, conditions: Table A4-1; element C5

SMILES	Ligand-pharmacophore element distance, pharmacophore element C5
Cc1nc(N)ccc1CNC(=O)[C@H](C)NC(=O)[C@H]1C[C@H](Cc2cccc(Cl)c2)CN1.Cl.Cl [1328_3]	0
Cc1nc(N)ccc1CNC(=O)[C@H](C)NC(=O)[C@H]1C[C@H](Cc2cccc(Cl)c2)CN1.Cl.Cl [1328_4]	0

Same assay, conditions: Table A4-1; element C6

SMILES	Ligand-pharmacophore element distance, pharmacophore element C6
Cc1nc(N)ccc1CNC(=O)[C@H](C)NC(=O)[C@H]1C[C@H](Cc2cccc(Cl)c2)CN1.Cl.Cl [1328_3]	0
Cc1nc(N)ccc1CNC(=O)[C@H](C)NC(=O)[C@H]1C[C@H](Cc2cccc(Cl)c2)CN1.Cl.Cl [1328_4]	0

Same assay, conditions: Table A4-1; element C7

SMILES	Ligand-pharmacophore element distance, pharmacophore element C7
Cc1nc(N)ccc1CNC(=O)[C@H](C)NC(=O)[C@H]1C[C@H](Cc2cccc(Cl)c2)CN1.Cl.Cl [1328_3]	0
Cc1nc(N)ccc1CNC(=O)[C@H](C)NC(=O)[C@H]1C[C@H](Cc2cccc(Cl)c2)CN1.Cl.Cl [1328_4]	0

Same assay, conditions: Table A4-1; element CA1

SMILES	Ligand-pharmacophore element distance, pharmacophore element CA1
Cc1nc(N)ccc1CNC(=O)[C@H](C)NC(=O)[C@H]1C[C@H](Cc2cccc(Cl)c2)CN1.Cl.Cl [1328_3]	0.4
Cc1nc(N)ccc1CNC(=O)[C@H](C)NC(=O)[C@H]1C[C@H](Cc2cccc(Cl)c2)CN1.Cl.Cl [1328_4]	0.5

Same assay, conditions: Table A4-1; element CA2

SMILES	Ligand-pharmacophore element distance, pharmacophore element CA2
Cc1nc(N)ccc1CNC(=O)[C@H](C)NC(=O)[C@H]1C[C@H](Cc2cccc(Cl)c2)CN1.Cl.Cl [1328_3]	0.48
Cc1nc(N)ccc1CNC(=O)[C@H](C)NC(=O)[C@H]1C[C@H](Cc2cccc(Cl)c2)CN1.Cl.Cl [1328_4]	0.3

Same assay, conditions: Table A4-1; element CA3

SMILES	Ligand-pharmacophore element distance, pharmacophore element CA3
Cc1nc(N)ccc1CNC(=O)[C@H](C)NC(=O)[C@H]1C[C@H](Cc2cccc(Cl)c2)CN1.Cl.Cl [1328_3]	0
Cc1nc(N)ccc1CNC(=O)[C@H](C)NC(=O)[C@H]1C[C@H](Cc2cccc(Cl)c2)CN1.Cl.Cl [1328_4]	0

Same assay, conditions: Table A4-1; element CA4

SMILES	Ligand-pharmacophore element distance, pharmacophore element CA4
Cc1nc(N)ccc1CNC(=O)[C@H](C)NC(=O)[C@H]1C[C@H](Cc2cccc(Cl)c2)CN1.Cl.Cl [1328_3]	0
Cc1nc(N)ccc1CNC(=O)[C@H](C)NC(=O)[C@H]1C[C@H](Cc2cccc(Cl)c2)CN1.Cl.Cl [1328_4]	0

Same assay, conditions: Table A4-1; element CA5

SMILES	Ligand-pharmacophore element distance, pharmacophore element CA5
Cc1nc(N)ccc1CNC(=O)[C@H](C)NC(=O)[C@H]1C[C@H](Cc2cccc(Cl)c2)CN1.Cl.Cl [1328_3]	0
Cc1nc(N)ccc1CNC(=O)[C@H](C)NC(=O)[C@H]1C[C@H](Cc2cccc(Cl)c2)CN1.Cl.Cl [1328_4]	0

Same assay, conditions: Table A4-1; element CA6

SMILES	Ligand-pharmacophore element distance, pharmacophore element CA6
Cc1nc(N)ccc1CNC(=O)[C@H](C)NC(=O)[C@H]1C[C@H](Cc2cccc(Cl)c2)CN1.Cl.Cl [1328_3]	0
Cc1nc(N)ccc1CNC(=O)[C@H](C)NC(=O)[C@H]1C[C@H](Cc2cccc(Cl)c2)CN1.Cl.Cl [1328_4]	0

Same assay, conditions: Table A5-1 pharmacophore: distance between elements, S2/S1 region

SMILES	d(C3,CA1)	d(CA1,N1)2	d(CA1,O1)	d(CA1,O2)	d(H4,O1)	d(H4,O2)	d(O1,O2)
Cc1nc(N)ccc1CNC(=O)[C@H](C)NC(=O)[C@H]1C[C@H](Cc2cccc(Cl)c2)CN1.Cl.Cl [1328_3]	2.85	1.38	4.82	3.89	3.99	2.55	3.40
Cc1nc(N)ccc1CNC(=O)[C@H](C)NC(=O)[C@H]1C[C@H](Cc2cccc(Cl)c2)CN1.Cl.Cl [1328_4]	2.85	1.37	5.05	3.83	4.21	2.53	3.71

Same assay, conditions: Table A5-2 pharmacophore distance, S3/S4 region

SMILES	d(N2,C4)	d(N2,C4)4	d(N2,CA2)	d(O2,H3)	d(O2,N2)
Cc1nc(N)ccc1CNC(=O)[C@H](C)NC(=O)[C@H]1C[C@H](Cc2cccc(Cl)c2)CN1.Cl.Cl [1328_3]	7.95	7.95	6.00	4.77	2.77
Cc1nc(N)ccc1CNC(=O)[C@H](C)NC(=O)[C@H]1C[C@H](Cc2cccc(Cl)c2)CN1.Cl.Cl [1328_4]	7.92	7.92	6.17	4.71	2.79

Same assay, conditions: Table A6-1 pharmacophore angle

SMILES	a(C3, CA1, O1)	a(CA1, O1, O2)	a(O1, O2, H4)
Cc1nc(N)ccc1CNC(=O)[C@H](C)NC(=O)[C@H]1C[C@H](Cc2cccc(Cl)c2)CN1.Cl.Cl [1328_3]	150.74	97.62	122.23
Cc1nc(N)ccc1CNC(=O)[C@H](C)NC(=O)[C@H]1C[C@H](Cc2cccc(Cl)c2)CN1.Cl.Cl [1328_4]	151.05	96.00	119.12

Same assay, conditions: Table A6-1 pharmacophore angle; Methyl-amino-pyridine compounds

SMILES	a(N1, CA1, O1) b)
Cc1nc(N)ccc1CNC(=O)[C@H](C)NC(=O)[C@H]1C[C@H](Cc2cccc(Cl)c2)CN1.Cl.Cl [1328_3]	173.57
Cc1nc(N)ccc1CNC(=O)[C@H](C)NC(=O)[C@H]1C[C@H](Cc2cccc(Cl)c2)CN1.Cl.Cl [1328_4]	173.49

Same assay, conditions: Table A6-2 pharmacophore angle

SMILES	a(O1, O2, H3)	a(O1, O2, N2)	a(O2, N2, C4)	a(O2, N2, C4) 2	a(O2, N2, CA2)
Cc1nc(N)ccc1CNC(=O)[C@H](C)NC(=O)[C@H]1C[C@H](Cc2cccc(Cl)c2)CN1.Cl.Cl [1328_3]	151.35	139.67	160.41	106.08	154.95
Cc1nc(N)ccc1CNC(=O)[C@H](C)NC(=O)[C@H]1C[C@H](Cc2cccc(Cl)c2)CN1.Cl.Cl [1328_4]	150.66	142.82	160.57	109.36	156.25

Same assay, conditions: Table A7-1; between pharmacophore elements of the bound compound

SMILES	Pharmacophore torsion angle a(C3, CA1, O1, H4)	Pharmacophore torsion angle a(H4, O1, O2, H3)	Pharmacophore torsion angle a(H4, O1, O2, N2)	Pharmacophore torsion angle a(N1, CA1, O1, H4)	Pharmacophore torsion angle a(O1, H4, O2, CA1)
Cc1nc(N)ccc1CNC(=O)[C@H](C)NC(=O)[C@H]1C[C@H](Cc2cccc(Cl)c2)CN1.Cl.Cl [1328_3]	57.52	47.98	130.71	39.33	−87.28
Cc1nc(N)ccc1CNC(=O)[C@H](C)NC(=O)[C@H]1C[C@H](Cc2cccc(Cl)c2)CN1.Cl.Cl [1328_4]	66.00	44.95	135.08	58.16	−91.48

Same assay, conditions: Table A7-2; between pharmacophore elements of the bound compound

SMILES	Pharmacophore torsion angle a(O1, O2, N2, CA2)
Cc1nc(N)ccc1CNC(=O)[C@H](C)NC(=O)[C@H]1C[C@H](Cc2cccc(Cl)c2)CN1.Cl.Cl [1328_3]	131.79
Cc1nc(N)ccc1CNC(=O)[C@H](C)NC(=O)[C@H]1C[C@H](Cc2cccc(Cl)c2)CN1.Cl.Cl [1328_4]	128.70
